Experimental data taken from paper PMC9646836, “Tetrahydroquinolinone derivatives exert antiproliferative effect on lung cancer cells through apoptosis induction” (Scientific Reports, 2022).

Experiments:
HCT-116 = assay: MTT cell viability assay, HCT-116; assay type: cell-based, human; conditions: mean ± SD, n = 3
Description: (§1) All new tetrahydroquinoline derivatives were assessed for cytotoxicity on a broad panel of cancer and normal cell lines, using the MTT assay. The half-inhibitory growth inhibitory concentration (IC50) values of each compound were calculated after 72 h of treatment and presented in Table 1. […] In this assay, the IC50 value of 5-FU and ETP was recorded as a positive control.
(§2) Non-small cell lung cancer cells A549 (CCL-185), breast cancer cells MCF-7 ([…]), hepatocarcinoma cells HepG2 ([…]), normal kidney cells HEK293 (CRL-1573), and osteosarcoma cells U-2 OS (HTB-96) were obtained from the American Type Culture Collection. HCT-116 cell line was kindly provided by prof. Bert Vogelstein (Johns Hopkins University, Howard Hughes Medical Institute, USA). The obtained A549 and MCF-7 cells were cultured in RPMI-1640 medium, HepG2 cells in Minimum Essential Medium Eagle medium, HEK-293 cells in Dulbecco’s Modified Eagle’s medium, and U-2 OS and HCT-116 cells in McCoy’s […] medium. All culture media were supplemented with 10% fetal bovine serum, 2 mM L-glutamine, and antibiotics (penicillin 62.6 µg/ml and streptomycin 40 µg/ml; Sigma-Aldrich). Both cancer and normal cells were cultured at 37 °C under a humidified atmosphere with 5% or 10% CO2 and routinely screened for Mycoplasma contamination. All materials and reagents were obtained from Corning unless stated otherwise.
(§3) The cytotoxic effect of the synthesized compounds was assessed by the MTT (4,5-dimethylthiazol-2-yl-2,5-diphenyltetrazoliumbromide; Sigma-Aldrich) assay. Briefly, the cells were seeded into 96-well transparent flat-bottom plates and allowed to attach overnight. On the next day, the cells were treated with compounds in the range of 0–50 µM for 72 h. Dimethyl sulfoxide (DMSO; Merck) and 5-fluorouracil (5-FU; Sigma-Aldrich) were used as a reference. After exposure to the compounds, 20 μl of the MTT solution at a concentration of 4 mg/ml was added to each well, and the plates were incubated again for 2–3 h at 37 °C. Next, the media in the wells was replaced with 100 μl DMSO to solubilize the formazan crystals. The absorbance was measured at 540 nm using an ASYS UVM340 microplate reader (Biochrom Ltd.). The IC50 value of the compounds was calculated using GraphPad Prism 9 software, based on the curves plotted with survival as a function of dose, averaged from three independent experiments.

MCF-7 = assay: MTT cell viability assay, MCF-7; assay type: cell-based, human; conditions: mean ± SD, n = 3
Description: as §1, §2, §3

HepG2 = assay: MTT cell viability assay, HepG2; assay type: cell-based; conditions: mean ± SD, n = 3
Description: as §1, §2, §3

Hela = assay: MTT cell viability assay, Hela; assay type: cell-based; conditions: 72 h, mean ± SD, n = 3
Description: as §1, §3

HEK293 = assay: MTT cell viability assay, HEK293 normal kidney cells; assay type: cell-based, human; conditions: for IC50: MTT, 72 h, normal kidney cells, mean ± SD, n = 3
Description: as §1, §2, §3

A549 = assay: MTT cell viability assay, A549; assay type: cell-based, human; conditions: mean ± SD, n = 3
Description: as §1, §2, §3

[1] = test system: tested cell lines (HCT-116, A549, MCF-7, HepG2, Hela, HEK293); assay: MTT assay, broad panel of cancer and normal cell lines; assay type: cell-based; conditions: range of 0–50 µM, 72 h
Description: as §1, §3

With `O=c1[nH]cc(F)c(=O)[nH]1` [Compound 5-FU, 5-fluorouracil, reference compound] as the compound, how does the IC50 (HCT-116; Homo sapiens, HCT-116, 72 h) read?
The IC50 was 5.78 ± 0.38 µM.

And the IC50 (MCF-7; Homo sapiens, MCF7, 72 h)?
The IC50 was 8.41 ± 0.98 µM.

And the IC50 (HepG2; Homo sapiens, HepG2, 72 h)?
The IC50 was 13.1 ± 0.32 µM.

What about the IC50 (Hela; Homo sapiens, HeLa) of the same compound?
Its IC50 is 11.1 ± 1.53 µM.

And the IC50 (HEK293; Homo sapiens, HEK293)?
Its IC50 is 16.8 ± 0.34 µM.

Which IC50 (HCT-116; 72 h) does the source give for `COc1cc([C@@H]2c3cc4c(cc3[C@@H](O[C@@H]3O[C@@H]5CO[C@@H](C)O[C@H]5[C@H](O)[C@H]3O)[C@H]3COC(=O)[C@H]23)OCO4)cc(OC)c1O` [ETP, reference compound] here?
Its IC50 is 0.39 ± 0.01 µM.

And the IC50 (A549; 72 h)?
The IC50 was 0.54 ± 0.21 µM.

And the IC50 (MCF-7; 72 h)?
Its IC50 is 0.83 ± 0.15 µM.

And the IC50 (HepG2; 72 h)?
The IC50 was 5.01 ± 0.22 µM.

What about the IC50 (Hela) of the same compound?
Its IC50 is 3.4 ± 0.51 µM.

What about the IC50 (HEK293) of the same compound?
Its IC50 is 1.91 ± 0.97 µM.

For `O=c1[nH]c2c(c(-c3ccccc3)c1Cc1ccc(C(F)(F)F)cc1)CCCC2` [Compound 4e, 4-phenyl-3-[[4-(trifluoromethyl)phenyl]methyl]-5,6,7,8-tetrahydro-1H-quinolin-2-one], which IC50 (HCT-116; Homo sapiens, HCT-116, 72 h) is on record?
The IC50 was greater than 50 µM.

And the IC50 (A549; Homo sapiens, A549, 72 h)?
Its IC50 is greater than 50 µM.

And the IC50 (MCF-7; Homo sapiens, MCF7, 72 h)?
Its IC50 is greater than 50 µM.

And the IC50 (HepG2; Homo sapiens, HepG2, 72 h)?
The IC50 was greater than 50 µM.

And the IC50 (Hela; Homo sapiens, HeLa)?
The IC50 was greater than 50 µM.

What about the IC50 (HEK293; Homo sapiens, HEK293) of the same compound?
Its IC50 is greater than 50 µM.

What about the “effect on the tested cell lines” value [1] of the same compound?
Its value is “did not have any effect”.

`Clc1nc2c(c(-c3ccccc3)c1Cc1cccc3ccccc13)CCCC2` [Compound 5, 2-chloro-3-(1-naphthylmethyl)-4-phenyl-5,6,7,8-tetrahydroquinoline] was tested. Which IC50 (HCT-116; 72 h) did it give?
Its IC50 is 13.1 ± 0.96 µM.

What about the IC50 (HCT-116; Homo sapiens, HCT-116, 72 h) of the same compound?
The IC50 was roughly 13 µM.

And the IC50 (A549; Homo sapiens, A549, 72 h)?
The IC50 was greater than 50 µM.

And the IC50 (MCF-7; Homo sapiens, MCF7, 72 h)?
Its IC50 is greater than 50 µM.

And the IC50 (HepG2; Homo sapiens, HepG2, 72 h)?
The IC50 was greater than 50 µM.

And the IC50 (Hela; Homo sapiens, HeLa)?
The IC50 was greater than 50 µM.

What about the IC50 (HEK293; Homo sapiens, HEK293) of the same compound?
Its IC50 is greater than 50 µM.

What does the source list for `O=c1[nH]c2c(c(-c3ccccc3)c1Cc1ccc(-c3ccccc3)cc1)CCCC2` [Compound 4c, 4-phenyl-3-[(4-phenylphenyl)methyl]-5,6,7,8-tetrahydro-1H-quinolin-2-one]?
IC50 (HCT-116; Homo sapiens, HCT-116, 72 h): > 50 µM; IC50 (A549; Homo sapiens, A549, 72 h): > 50 µM; IC50 (MCF-7; Homo sapiens, MCF7, 72 h): > 50 µM; IC50 (HepG2; Homo sapiens, HepG2, 72 h): > 50 µM; IC50 (Hela; Homo sapiens, HeLa): > 50 µM; IC50 (HEK293; Homo sapiens, HEK293): > 50 µM; effect on the tested cell lines [1]: did not have any effect

Which IC50 (HCT-116; 72 h) does the source give for `COc1nc2c(c(-c3ccccc3)c1Cc1cccc3ccccc13)CCCC2` [Compound 6, 2-methoxy-3-(1-naphthylmethyl)-4-phenyl-5,6,7,8-tetrahydroquinoline] here?
The IC50 was 15.6 ± 1.29 µM.

And the IC50 (HCT-116; Homo sapiens, HCT-116, 72 h)?
The IC50 was roughly 13 µM.

And the IC50 (A549; Homo sapiens, A549, 72 h)?
The IC50 was 40.2 ± 0.94 µM.

And the IC50 (MCF-7; Homo sapiens, MCF7, 72 h)?
Its IC50 is greater than 50 µM.

What about the IC50 (HepG2; Homo sapiens, HepG2, 72 h) of the same compound?
Its IC50 is greater than 50 µM.

What about the IC50 (Hela; Homo sapiens, HeLa) of the same compound?
The IC50 was 50 µM.

What about the IC50 (HEK293; Homo sapiens, HEK293) of the same compound?
The IC50 was greater than 50 µM.

What about the “suppressive effect on human normal HEK293 kidney cells” value (HEK293; tested concentrations, compared to A549 and HCT-116) of the same compound?
Its value is “almost no suppressive effect”.

Which IC50 (HCT-116; Homo sapiens, HCT-116, 72 h) does the source give for `O=c1[nH]c2c(c(-c3ccccc3)c1Cc1ccc3ccccc3c1)CCCC2` [Compound 4b, 3-(2-naphthylmethyl)-4-phenyl-5,6,7,8-tetrahydro-1H-quinolin-2-one] here?
Its IC50 is greater than 50 µM.

And the IC50 (A549; Homo sapiens, A549, 72 h)?
Its IC50 is greater than 50 µM.

And the IC50 (MCF-7; Homo sapiens, MCF7, 72 h)?
Its IC50 is greater than 50 µM.

What about the IC50 (HepG2; Homo sapiens, HepG2, 72 h) of the same compound?
The IC50 was greater than 50 µM.

And the IC50 (Hela; Homo sapiens, HeLa)?
The IC50 was greater than 50 µM.

And the IC50 (HEK293; Homo sapiens, HEK293)?
The IC50 was greater than 50 µM.

And the “effect on the tested cell lines” value [1]?
Its value is “did not have any effect”.

`O=c1[nH]c2c(c(-c3ccccc3)c1Cc1cccc(-c3ccccc3)c1)CCCC2` [Compound 4d, 4-phenyl-3-[(3-phenylphenyl)methyl]-5,6,7,8-tetrahydro-1H-quinolin-2-one] was tested. Which IC50 (HCT-116; Homo sapiens, HCT-116, 72 h) did it give?
The IC50 was greater than 50 µM.

What about the IC50 (A549; Homo sapiens, A549, 72 h) of the same compound?
The IC50 was greater than 50 µM.

What about the IC50 (MCF-7; Homo sapiens, MCF7, 72 h) of the same compound?
The IC50 was greater than 50 µM.

What about the IC50 (HepG2; Homo sapiens, HepG2, 72 h) of the same compound?
The IC50 was greater than 50 µM.

What about the IC50 (Hela; Homo sapiens, HeLa) of the same compound?
Its IC50 is greater than 50 µM.

What about the IC50 (HEK293; Homo sapiens, HEK293) of the same compound?
The IC50 was greater than 50 µM.

What about the “effect on the tested cell lines” value [1] of the same compound?
Its value is “did not have any effect”.
